Measurements published in patent US9623048B2, “Human hepatocyte-like cells and uses thereof” (SHANGHAI INSTITUTES FOR BIOLOGICAL SCIENCES, CHINESE …, priority 2013, dated 2017).
Like-named read-outs stand apart in the source and are kept apart here.

How the values were obtained:
hiHep cells [1] = test: Sandwich culture biliary excretion assay in hiHep cells; conditions: sandwich cultured hiHep cells, 10 minutes incubation
Procedure: To prepare sandwich culture, 1×10^5 hiHep cells, primary human hepatocytes, and HFF were seeded in collagen I coated 24 well plate. 200 μL 1.5 mg/ml freshly prepared neutralized collagen gel solution were then poured on cells. After solidification, cells were cultured in Williams' E medium supplemented with 5% FBS, 10 μM TCA and 2 μM cAMP for a further 4 days.
To analyze the biliary excretion index, cells were washed once and then incubate in HBSS buffer or Calcium free HBSS buffer at 37° C. […] Cumulative uptake was stopped by washing with cold HBSS buffer for three times. […] The amount of CLF was quantified by measuring fluorescence at 492 nm and 536 nm with a Synergy 4 microplate reader (Biotek, Winooski, USA). Biliary Excretion Index (BEI) was calculated as: BEI=(AHBSS−AHBSS([…]))/AHBSS×100%.
Membrane transporter-mediated biliary excretion is another important function of hepatocytes for clearance of xenobiotics. Drug clearance through biliary excretion is a critically evaluated property in the selection of drug candidates.

[2] = test system: CYP450 enzymes in hiHep cells; test: CYP induction assay in hiHep cells (q-PCR); conditions: 48 hours inducer treatment
Procedure: Total RNA was extracted to measure the induction of CYP enzymes responding to chemical inducers by q-PCR. Total RNA of cells without inducer treatment were used to measure the expression of CYP450 genes and nuclear receptor genes.
Next, assays were carried out to analyze whether hiHep cells were responsive to CYP inducers.
Transcriptional activation of CYP450 enzymes and many other drug metabolism enzymes are mediated by nuclear receptors including AHR, CAR, and PXR.

MSC-hiHep cells = test: CYP metabolism assay in AD-MSC-derived hiHep cells
Procedure: (§1) Freshly thawed primary human hepatocytes were directly used as a positive control. Cells were incubated with substrate in 200 μl incubation medium at different concentrations for 3 hours at 37° C. To stop the reaction, […] cold methanol was added and centrifuged. The supernatants were collected for measurement of metabolized compounds by LC-MS/MS (Agilent 1200 HPLC and ABI 4000 mass-spectrometer). Total cell protein amount was used to normalize the data. Substrates and metabolized products used for standard curves were commercially purchased.

hiHep cells [3] = test: CYP metabolism assay in hiHep cells (LC-MS/MS of metabolic products)
Procedure: (§2) For the measurement of CYP enzyme activities, cells were induced with different compounds for certain drug metabolisms. The supernatants were collected for measurement of metabolized compounds by LC-MS/MS (Agilent 1200 HPLC and ABI 4000 mass-spectrometer).
as §1
Freshly thawed primary human hepatocytes were directly used as a positive control.

hiHep^LT cells = test: CYP metabolism assay in hiHep^LT cells; conditions: passage 10
Procedure: as §2, §1

## [D-Pen2,5]-enkephalin hydrate [DPDPE]
hiHep cells [1]
  biliary excretion indices (BEI): remarkable

## CCC1(c2ccccc2)C(=O)NC(=O)NC1=O [phenobarbital]
[2]
  induction of CYP3A4 mRNA: relatively low but significant level
  induction of mRNA expression levels of CYP1A2, CYP2A6, CYP2B6, CYP2C8 and CYP2C9: markedly induced

## CC(CCC(=O)NC(CCCCNC(=S)Nc1ccc(-c2c3ccc(=O)cc-3oc3cc(O)ccc23)c(C(=O)O)c1)C(=O)O)C1CCC2C3C(O)CC4CC(O)CCC4(C)C3CC(O)C12C (stereo not drawn) [CLF, cholyl-lysyl-fluorescein]
hiHep cells [1]
  biliary excretion indices (BEI): remarkable

## COc1ccc2c(c1)[C@]13CCCC[C@@H]1[C@H](C2)N(C)CC3 [dextromethorphan]
MSC-hiHep cells
  products of metabolism: not detected
hiHep cells [3]; hiHep cells after 48 hours CYP induction, 3 hours incubation
  CYP enzyme-dependent metabolism: showed CYP enzyme-dependent metabolism
hiHep^LT cells
  products of metabolism: not detected

## Cc1ccc2cc3c(ccc4ccccc43)c3c2c1CC3 [3-methylcholanthrene]
[2]
  induction of mRNA expression levels of CYP1A2, CYP2A6, CYP2B6, CYP2C8 and CYP2C9: markedly induced

## O=c1ccc2ccccc2o1 [coumarin]
hiHep cells [3]
  CYP enzyme-dependent metabolism: showed CYP enzyme-dependent metabolism
